Data on 25 molecules can be found in patent publication US20120129870A1, “PIPERAZINYL DERIVATIVES USEFUL AS MODULATORS OF THE NEUROPEPTIDE Y2 RECEPTOR” (priority 2007, published 2012).

Structures are written as SMILES.

Assay [1] deals with T1, NPY Y2 receptor (Homo sapiens, UniProt P49146).
T1 sequence (P49146 1-381): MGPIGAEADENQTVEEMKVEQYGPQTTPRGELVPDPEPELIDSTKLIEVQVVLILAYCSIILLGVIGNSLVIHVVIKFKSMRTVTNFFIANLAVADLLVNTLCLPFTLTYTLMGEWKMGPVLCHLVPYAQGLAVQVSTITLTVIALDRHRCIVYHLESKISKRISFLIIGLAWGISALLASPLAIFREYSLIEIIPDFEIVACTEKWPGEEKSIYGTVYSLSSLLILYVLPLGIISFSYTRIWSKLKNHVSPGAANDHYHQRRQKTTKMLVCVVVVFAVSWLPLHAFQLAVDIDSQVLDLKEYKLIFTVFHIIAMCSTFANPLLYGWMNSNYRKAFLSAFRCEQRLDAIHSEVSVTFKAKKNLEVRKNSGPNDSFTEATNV
Kind of assay: Neuropeptide Y2 pKB assay (FLIPR, KAN-Ts cells stably expressing chimeric G proteins). The class given is cell-based. The conditions noted are these: apparent pKB, modified Cheng-Prusoff correction. How it is done:
The assay was performed using the fluorimetric imaging plate reader (FLIPR) format as described in Dautzenberg, F. M., Biochemical Pharmacology 2005, 69, 1493.
KAN-Ts cells stably expressing chimeric G proteins were seeded at a density of 100,000 cells into poly-d-lysine coated 384-well blackwall, clear-bottom microtiter plates (Corning, N.Y.). One day later, the medium was removed and 50 μl loading medium DMEM high glucose, without serum, supplemented with 10 mM HEPES-acid, 0.1% BSA, 5 mM probenecid and 2 μM Fluo-3AM was added. Cells were loaded for 1 h at 37° C., washed twice with 50 μl assay buffer (5 mM HEPES-acid, 140 mM NaCl, 1 mM MgCl2, 5 mM KCl, 10 mM glucose) and then 30 μl assay buffer was added. Cells were further pre-incubated at room temperature before adding agonists or agonists plus antagonists in 20 μl assay buffer and then measured on a T-channel fluorometric imaging plate reader (FLIPR, Molecular Devices, Sunnyvale, Calif.). Antagonistic potency values were converted to apparent pKB values using a modified Cheng-Prusoff correction. Apparent pKB was calculated as pKB=−log IC50/1+[conc agonist/EC50].

For assay [2], the target named is T1, NPY Y2 receptor. Kind of assay: Neuropeptide Y2 radioligand binding assay ([125I]PYY, KAN-Ts membranes). The note with it: for IC50: KAN-Ts membranes endogenously expressing Y2, [125I]PYY (80 pM), 1 h at rt; for Ki: apparent Ki=IC50/(1+C/KD). On the set-up: endogenous in cells; host or cells: KAN-Ts cells (membrane preparation). How it is done: KAN-Ts endogenously expressing Y2 receptors were used for the radioligand binding assay. Cells were grown to confluence on 150 cm^2 tissue culture plates, washed with phosphate-buffered saline (PBS), and scraped into 50 mL tubes. After centrifugation, the supernatant was aspirated, and the pellets frozen and stored at −80° C. Thawed pellets were homogenized with a polytron tissue grinder for 15 sec in 20 mM Tris-HCl, 5 mM EDTA. The homogenate was centrifuged at 800×g for 5 min and the collected supernatant was recentrifuged at 25000×g for 25 min. The resulting pellet was resuspended in binding buffer (20 mM HEPES, 120 mM NaCl, 0.22 mM KH2PO4, 1.3 mM CaCl2, 0.8 mM MgSO4). Membranes were incubated with [^125I]PYY (80 pM) in the presence or absence of test compound for 1 h at rt. The reaction was stopped by filtration through GF/C filter plates pre-soaked in 0.3% polyethylenimine and subsequently washed with Tris 50 mM, 5 mM EDTA buffer. Plates were dried for 1 h in a 55° C. oven, scintillation fluid was added and the radioactivity was counted in a Packard TopCount. Specific binding to the NPY receptor subtypes was determined by radioactivity that was bound in the presence of […]. Each binding experiment was repeated three to eight times, each in duplicate. IC50 values (i.e. concentration of unlabelled peptide or antagonist required to compete for 50% of specific binding to the radioligand) were calculated using the GraphPad Prism software (GraphPad Software Inc., San Diego Calif.) with a fit to a sigmoidal dose response curve. Apparent K, values were calculated as Ki=IC50/(1+C/KD), where C is concentration of the radioligand.

Turning to `O=C(Nc1ccc(N2CCN(C(c3ccccc3)c3ncco3)CC2)c(F)c1)C1CCCC1` (centres unmarked) [Compound 54, Cyclopentanecarboxylic acid {3-fluoro-4-[4-(oxazol-2-yl-phenyl-methyl)-piperazin-1-yl]-phenyl}amide], at NPY Y2 receptor [1], the Kb was 10 µM. Also, the IC50 at NPY Y2 receptor [2] worked out at 0.095 µM.
Consider `CCC(CC)C(=O)Nc1ccc(N2CCN(C(c3ccccc3)c3cccnc3)CC2)c(C#N)c1` (centres unmarked) [Compound 317, N-{3-Cyano-4-[4-(phenyl-pyridin-3-yl-methyl)-piperazin-1-yl]-phenyl}-2-ethyl-butyramide], for which the Kb at NPY Y2 receptor [1] was 0.0316 µM. In addition, the Ki at NPY Y2 receptor [2] amounted to 0.0043 µM.
With `CCC(CC)C(=O)Nc1ccc(N2CCN(C(c3ccccc3)c3noc(CF)n3)CC2)c(F)c1` (centres unmarked) [Compound 235, 2-Ethyl-N-(3-fluoro-4-{4-[(5-fluoromethyl-[1,2,4]-oxadiazol-3-yl)-phenyl-methyl]-piperazin-1-yl}-phenyl)-butyramide], the Kb at NPY Y2 receptor [1] is 0.0631 µM. The molecule also had an IC50 on NPY Y2 receptor [2] of 0.03 µM.
With `CCC(CC)C(=O)Nc1ccc(N2CCN(C(c3ccccc3)c3ncco3)CC2)c(F)c1` (single isomer, unassigned) [Compound 59, 2-Ethyl-N-{3-fluoro-4-[4-(oxazol-2-yl-phenyl-methyl)-piperazin-1-yl]-phenyl}-butyramide], at NPY Y2 receptor [1], the Kb is 0.2 µM. The IC50 on NPY Y2 receptor [2] was 0.096 µM.
With `CCC(CC)C(=O)Nc1cc(F)c(N2CCN(C(c3ccccc3)c3ncco3)CC2)c(F)c1` (centres unmarked) [Compound 243, N-{3,5-Difluoro-4-[4-(oxazol-2-yl-phenyl-methyl)-piperazin-1-yl]-phenyl}-2-ethyl-butyramide], the Kb at NPY Y2 receptor [1] is 0.126 µM. At NPY Y2 receptor [2], this molecule yielded an IC50 of 0.05 µM.
Regarding `CCC(CC)C(=O)Nc1ccc(N2CCN(C(c3ccc(OC)cc3)c3ncco3)CC2)c(C#N)c1` (centres unmarked) [Compound 141, N-(3-Cyano-4-{4-[(4-methoxy-phenyl)-oxazol-2-yl-methyl]-piperazin-1-yl}-phenyl)-2-ethyl-butyramide], at NPY Y2 receptor [1], the Kb is 0.0501 µM. Moreover, the IC50 on NPY Y2 receptor [2] worked out at 0.029 µM.
With `CCC(CC)C(=O)Nc1ccc(N2CCN(C(c3ccccc3)c3nccs3)CC2)c(F)c1` (centres unmarked) [Compound 39, 2-Ethyl-N-{3-fluoro-4-[4-(phenyl-thiazol-2-yl-methyl)-piperazin-1-yl]-phenyl}-butyramide], at NPY Y2 receptor [1], the Kb is 0.0631 µM. The same molecule showed an IC50 on NPY Y2 receptor [2] of 0.028 µM.
Molecule `CCCC(=O)Nc1ccc(N2CCN(C(c3ccccc3)c3ncco3)CC2)c(F)c1` (centres unmarked) [Compound 100, N-{3-Fluoro-4-[4-(oxazol-2-yl-phenyl-methyl)-piperazin-1-yl]-phenyl}-butyramide] had an IC50 at NPY Y2 receptor [2] of 1.3 µM.
On NPY Y2 receptor [2], `CCC(CC)C(=O)Nc1ccc(N2CCN(C(c3ccc(OC)cc3)C3CC3)CC2)c(F)c1` (centres unmarked) [Compound 84, N-(4-{4-[Cyclopropyl-(4-methoxy-phenyl)-methyl]-piperazin-1-yl}-3-fluoro-phenyl)-2-ethyl-butyramide] displayed an IC50 of 0.29 µM.
Still for that read-out and setting: for `CCC(CC)C(=O)Nc1ccc(N2CCN(C(C3=N[C@H](C(=O)OC)CO3)c3ccccc3)CC2)c(F)c1` (some centres unmarked) [Compound 179, 2-({4-[4-(2-Ethyl-butyrylamino)-2-fluoro-phenyl]-piperazin-1-yl}-phenyl-methyl)-4,5-dihydro-oxazole-4-carboxylic acid methyl ester] the value was 0.041 µM; for `Cc1ccccc1Nc1ccc(N2CCN(C(c3ccccc3)c3ncco3)CC2)c(F)c1` (centres unmarked) [Compound 63, {3-Fluoro-4-[4-(oxazol-2-yl-phenyl-methyl)-piperazin-1-yl]-phenyl}-o-tolyl-amine], 0.71 µM; for `CCC(CC)C(=O)Nc1ccc(N2CCN(C(c3ccc(Cl)cc3)c3ncco3)CC2)c(F)c1` (centres unmarked) [Compound 157], 0.16 µM.
Molecule `Cc1ccccc1C(=O)Nc1ccc(N2CCN(C(c3ccccc3)c3ncco3)CC2)c(C#N)c1` (centres unmarked) [Compound 96, N-{3-Cyano-4-[4-(oxazol-2-yl-phenyl-methyl)-piperazin-1-yl]-phenyl}-2-methyl-benzamide] displayed an IC50 on NPY Y2 receptor [2] of 0.15 µM.
For the molecule `CCC(CC)C(=O)Nc1ccc(N2CCN(C(c3ccccc3)c3noc(C(F)(F)F)n3)CC2)c(F)c1` (centres unmarked) [Compound 234, 2-Ethyl-N-(3-fluoro-4-{4-[phenyl-(5-trifluoromethyl-[1,2,4]-oxadiazol-3-yl)-methyl]-piperazin-1-yl}-phenyl)-butyramide], at NPY Y2 receptor [2], the concentration for half-maximal inhibition (IC50) is 0.12 µM.
Regarding `Cc1ccccc1C(c1ccccc1)N1CCN(c2ccc(NC(=O)c3c(C)noc3C)cc2C#N)CC1` (centres unmarked) [Compound 301, N-(3-Cyano-4-{4-[(2-methylphenyl)(phenyl)methyl]piperazin-1-yl}phenyl)-3,5-dimethylisoxazole-4-carboxamide], on NPY Y2 receptor [2], the Ki came to 0.14 µM.
On to `CCC(CC)C(=O)Nc1ccc(N2CCN(C(c3ccccc3)C3CCC3)CC2)c(F)c1` (centres unmarked) [Compound 78, N-{4-[4-(Cyclobutyl-phenyl-methyl)-piperazin-1-yl]-3-fluoro-phenyl}-2-ethyl-butyramide], for which the IC50 at NPY Y2 receptor [2] was 0.053 µM.
As for `CCC(CC)C(=O)Nc1ccc(N2CCN(C(c3ccc(C#N)cc3)c3ncco3)CC2)c(F)c1` (centres unmarked) [Compound 146, N-(4-{4-[(4-Cyano-phenyl)-oxazol-2-yl-methyl]-piperazin-1-yl}-3-fluoro-phenyl)-2-ethyl-butyramide], the IC50 at NPY Y2 receptor [2] was found to be 0.26 µM.
On to `CCC(CC)C(=O)Nc1ccc(N2CCN(C(c3ccccc3)c3ccc(Cl)cc3)CC2)c(F)c1` (centres unmarked) [Compound 13, N-(4-{4-[(4-Chloro-phenyl)-phenyl-methyl]-piperazin-1-yl}-3-fluoro-phenyl)-2-ethyl-butyramide], for which the IC50 on NPY Y2 receptor [2] worked out at 0.45 µM.
In the case of `CCC(CC)C(=O)Nc1ccc(N2CCN(C(C#N)c3ccccc3OC)CC2)c(F)c1` (centres unmarked) [Compound 137, N-(4-{4-[Cyano-(2-methoxy-phenyl)-methyl]-piperazin-1-yl}-3-fluoro-phenyl)-2-ethyl-butyramide], the IC50 at NPY Y2 receptor [2] was found to be 1.2 µM.
Take `CCCC(=O)Nc1ccc(N2CCN(C(c3ccccc3)c3ncco3)CC2)c(C#N)c1` (centres unmarked) [Compound 98, N-{3-Cyano-4-[4-(oxazol-2-yl-phenyl-methyl)-piperazin-1-yl]-phenyl}-butyramide]: at NPY Y2 receptor [2], the IC50 amounted to 0.18 µM. Compared with the last molecule, the IC50 is about 6.7-fold lower.
As for `CC(C)C(=O)Nc1ccc(N2CCN(C(c3ccccc3)c3ncco3)CC2)c(F)c1` (centres unmarked) [Compound 72, N-{3-Fluoro-4-[4-(oxazol-2-yl-phenyl-methyl)-piperazin-1-yl]-phenyl}-isobutyramide], on NPY Y2 receptor [2], the concentration for half-maximal inhibition (IC50) came to 0.32 µM.
On the same count and under the same terms, the result for `CCC(CC)C(=O)Nc1ccc(N2CCN(C(c3ccccc3)c3ncco3)CC2)c(C#N)c1` (centres unmarked) [Compound 86, N-{3-Cyano-4-[4-(oxazol-2-yl-phenyl-methyl)-piperazin-1-yl]-phenyl}-2-ethyl-butyramide] reads 0.005 µM; that for `CCC(CC)C(=O)Nc1ccc(N2CCN(C(c3ccccc3)C3CCOC3)CC2)c(F)c1` (centres unmarked) [Compound 114, 2-Ethyl-N-(3-fluoro-4-{4-[phenyl-(tetrahydro-furan-3-yl)-methyl]-piperazin-1-yl}-phenyl)-butyramide], 0.46 µM; that for `CCC(CC)C(=O)Nc1ccc(N2CCN(C(c3ccc(F)cc3)c3ncco3)CC2)c(F)c1` (centres unmarked) [Compound 120, 2-Ethyl-N-(3-fluoro-4-{4-[(4-fluoro-phenyl)-oxazol-2-yl-methyl]-piperazin-1-yl}-phenyl)-butyramide], 0.77 µM.
Take `CCC(CC)C(=O)Nc1ccc(N2CCN(C(c3ccccc3)c3nccn3C)CC2)c(F)c1` (centres unmarked) [Compound 64, 2-Ethyl-N-(3-fluoro-4-{4-[(1-methyl-1H-imidazol-2-yl)-phenyl-methyl]-piperazin-1-yl}-phenyl)-butyramide]: the IC50 on NPY Y2 receptor [2] was determined as 0.17 µM.

In general, IC50 refers to the midpoint of a concentration-inhibition curve. Lower therefore signals inhibition by little substance.
